For one series, the system named is PC3 cells. Kind of series: Cyclin D1 and cyclin D3 levels (Western blot). The class given is cell-based.
A further series deals with T1, PKD2 (Homo sapiens, UniProt Q9BZL6).
T1 sequence (Q9BZL6 1-878): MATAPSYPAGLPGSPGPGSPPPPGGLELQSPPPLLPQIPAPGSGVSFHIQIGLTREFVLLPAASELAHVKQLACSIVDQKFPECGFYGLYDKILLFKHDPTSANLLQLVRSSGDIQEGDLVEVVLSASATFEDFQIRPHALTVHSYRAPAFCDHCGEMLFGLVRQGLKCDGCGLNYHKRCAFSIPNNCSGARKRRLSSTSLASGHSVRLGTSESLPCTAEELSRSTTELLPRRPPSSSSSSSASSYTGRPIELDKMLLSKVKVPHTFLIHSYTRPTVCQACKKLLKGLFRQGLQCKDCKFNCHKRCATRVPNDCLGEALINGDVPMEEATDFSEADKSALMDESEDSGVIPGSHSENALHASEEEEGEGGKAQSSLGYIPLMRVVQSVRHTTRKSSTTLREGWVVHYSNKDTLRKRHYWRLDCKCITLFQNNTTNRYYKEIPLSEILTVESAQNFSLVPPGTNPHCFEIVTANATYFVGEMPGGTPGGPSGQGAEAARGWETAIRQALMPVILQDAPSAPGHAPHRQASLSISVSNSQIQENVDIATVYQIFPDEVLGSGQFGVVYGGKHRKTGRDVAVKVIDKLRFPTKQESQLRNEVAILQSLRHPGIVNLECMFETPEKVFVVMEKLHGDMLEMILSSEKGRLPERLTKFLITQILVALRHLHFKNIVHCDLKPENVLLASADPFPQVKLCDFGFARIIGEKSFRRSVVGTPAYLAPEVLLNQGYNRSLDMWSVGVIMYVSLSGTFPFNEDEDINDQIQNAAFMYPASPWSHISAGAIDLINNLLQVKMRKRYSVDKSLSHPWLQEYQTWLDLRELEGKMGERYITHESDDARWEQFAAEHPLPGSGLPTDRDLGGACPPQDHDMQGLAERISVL
The series can be described thus: In vitro radiometric PKD kinase assay. The class given is biochemical. Further details: purchased SignalChem. The note with it: for IC50: radiometric kinase assay, mean ± S.E.M. How it is done: In vitro radiometric kinase assays were conducted as previously described. Briefly, 1 μCi [γ-^32P] ATP (PerkinElmer Life Sciences), 70 μM ATP, 50 ng purified recombinant human PKD1 (Biomol International, Plymouth Meeting, PA), PKD2 (SignalChem, Richmond, BC, Canada), or CAMKIIα (Enzo Life Sciences) or 75 ng PKD3 (Enzo Life Sciences), and 2.5 μg syntide-2 (Sigma) in 50 μl kinase buffer containing 50 mM Tris-HCl, pH 7.5, 4 mM MgCl2, and 10 mM β-mercaptoethanol. For the CAMK assay, 0.5 mM CaCl2 and 30 ng/μl calmodulin were pre-incubated for 10 min on ice, and then added to each reaction mixture. The reaction was incubated at 30°C for 10 min, and 25 μl of the reaction mixture was then spotted onto Whatman P81 filter paper (Whatman Inc., Clifton, NJ). The filter papers were washed 3 times in 0.5% phosphoric acid, air-dried, and counted using a Beckman LS6500 multipurpose scintillation counter (Beckman).
The in vitro inhibitory activities of the novel compounds toward PKD were determined using radiometric PKD kinase activity assays. Recombinant human PKD1, -2, or -3 was incubated with the substrate, syntide-2, in the presence of 10 different concentrations of each compound. IC50 values were determined for each compound by plotting percent PKD activity versus compound concentration for each point.

The target of the next series is T2, PKD1 (Homo sapiens, UniProt Q15139).
T2 sequence (Q15139 1-912): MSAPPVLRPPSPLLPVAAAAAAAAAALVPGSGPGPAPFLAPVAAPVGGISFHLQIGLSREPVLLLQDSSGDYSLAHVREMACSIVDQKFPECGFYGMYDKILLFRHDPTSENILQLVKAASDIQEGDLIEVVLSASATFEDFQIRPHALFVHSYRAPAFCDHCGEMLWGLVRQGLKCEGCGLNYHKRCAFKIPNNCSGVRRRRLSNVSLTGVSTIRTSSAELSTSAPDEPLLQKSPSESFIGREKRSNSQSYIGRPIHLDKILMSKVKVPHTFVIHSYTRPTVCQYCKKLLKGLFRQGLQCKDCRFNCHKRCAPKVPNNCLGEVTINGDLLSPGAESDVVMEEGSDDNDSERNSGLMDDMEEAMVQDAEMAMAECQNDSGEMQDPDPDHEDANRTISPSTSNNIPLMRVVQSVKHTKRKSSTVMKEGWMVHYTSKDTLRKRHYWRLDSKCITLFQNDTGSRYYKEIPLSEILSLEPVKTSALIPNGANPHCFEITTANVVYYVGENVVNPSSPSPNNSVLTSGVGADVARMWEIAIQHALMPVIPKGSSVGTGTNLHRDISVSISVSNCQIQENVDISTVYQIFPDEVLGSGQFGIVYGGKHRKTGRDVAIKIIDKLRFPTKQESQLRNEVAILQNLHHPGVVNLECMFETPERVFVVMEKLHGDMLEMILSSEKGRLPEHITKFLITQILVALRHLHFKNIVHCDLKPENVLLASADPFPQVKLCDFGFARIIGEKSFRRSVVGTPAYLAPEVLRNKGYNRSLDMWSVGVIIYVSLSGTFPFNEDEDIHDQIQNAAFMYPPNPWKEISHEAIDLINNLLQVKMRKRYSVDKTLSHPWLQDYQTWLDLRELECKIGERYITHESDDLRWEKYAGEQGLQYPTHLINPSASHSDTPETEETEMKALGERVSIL
Kind of series: Inhibition of PMA-induced endogenous PKD1 activation in LNCaP cells (Western blot). Details: endogenous in cells; host or cells: LNCaP. As to conditions: 45 min pretreatment, 100 nM PMA 20 min, densitometry of Western blots, mean ± S.E.M., read-out: Cellular IC50, inhibition of PKD1 autophosphorylation at S916. In kind it is cell-based. How it is done:
LNCaP cells were maintained as described previously. Western blot analysis was carried out as previously reported. Briefly, cells were lysed in lysis buffer containing 200 mM Tris-HCl, pH 7.4, 100 μM 4-(2-aminoethyl) benzenesulfonyl fluoride, 1 mM EGTA, and 1% Triton X-100. Protein concentration was determined using the BCA Protein Concentration Assay reagent kit (Pierce) and then equal amounts of protein were subjected to SDS-PAGE followed by electrotransfer to nitrocellulose membranes. Membranes were blocked with 5% nonfat milk in Tris-buffered saline and then probed with primary antibodies for either p-S916-PKD1 (Millipore), p-S742-PKCμ/PKD (Biosource), or GAPDH, followed by anti-mouse or anti-rabbit secondary antibodies conjugated to horseradish peroxidase (Bio-Rad). The enhanced chemiluminescence (ECL) Western blotting detection system (Amersham Biosciences) was used to facilitate detection of protein bands.
LNCaP cells were pretreated with indicated concentrations of the five analogs for 45 min, then stimulated with 100 nM PMA for 20 min. Cell lysates were immunoblotted for p-S916-PKD1 and p-S742-PKD1. GAPDH was blotted as a loading control. The experiment was repeated at least three times and representative blots are shown.

Take `O=C1NCCCc2c1oc1ccc(O)cc21` [CID755673, 7-Hydroxy-2,3,4,5-tetrahydro-[1]benzoxolo[2,3-c]azepin-1-one]: the “cyclin D1 and D3 levels” value in the series with PC3 cells (48 hrs) is “induced cyclin D1 and D3 expression in a concentration-dependent manner”.

For `O=C1NCCCSc2c1sc1ccc(O)cc21` [kb-NB165-92], the cell death result in the series on PC3 cells (10 μM) is “caused significant cell death”. For the same compound, the values for the IC50 against PKD2 and at PKD1 were 101 ± 10.9 nM and 2600 ± 700 nM, respectively. In addition, the “fold reduction of potency for PKD2” value on PKD2 (versus kb-NB142-70) is given as 2-4 fold.

Regarding `O=C1NCCSc2c1sc1ccc(O)c(I)c21` [kb-NB165-31], the IC50 against PKD2 is 163 ± 20.5 nM; at PKD1, 8600 ± 2000 nM.

With `O=C1NCCSc2c1sc1ccc(O)cc21` [kb-NB142-70], on PKD2, the “fold stronger inhibition of PKD2 than CID755673” value is on record as “about 4 fold” and the IC50 is 58.7 ± 4.2 nM. For the same compound, the IC50 at PKD1 was determined as 2200 ± 600 nM.

Turning to `COc1ccc2sc3c(c2c1)SCCNC3=O` [kb-NB165-09], the IC50 was 142 ± 7.4 nM on PKD2 and 3100 ± 500 nM on PKD1.

In the case of `COc1ccc2sc3c(c2c1)SCCCNC3=O` [kb-NB184-02], the results for the IC50 against PKD2 and on PKD1 were 463 ± 38.2 nM and 18600 ± 2000 nM, respectively.

The record behind these values is PMC2873968, “Novel protein kinase D inhibitors cause potent arrest in prostate cancer cell growth and motility” (BMC Chemical Biology, 2010).
